Test results as given in patent US20260216154A1, “POTASSIUM CHANNEL BLOCKERS OR DERIVATIVES THEREOF FOR PREVENTING, ALLEVIATING, AND/OR TREATING MORBIDITY AND MORTALITY INDUCED BY PATHOGENS OR OTHER INDUCERS OF IMMUNE […]/OR EXCESS IMMUNE ACTIVATI” (University of Rochester, priority 2023, published 2026).
“Also recorded” adds a separate entry of the source.

Legend:
influenza virus (x31) = type: in vivo, mice
[1] = system: non-neurotropic, non-lethal influenza virus (x31 strain); type: in vivo, mice; details: accelerating rod, three consecutive runs

Nc1ccncc1 [4-AP, 4-aminopyridine]
mice surviving until at least Day 14 (survivors/treated) (influenza virus (x31); […], 4-AP 1.5 mg/kg, corticosteroid 1 mg/kg, N=7/group): 7/7 | influenza-induced weight loss (in words) (influenza virus (x31); mouse, in vivo): lesser weight loss; also recorded: attenuated | survival of infected ATM KO mice (in words) (influenza virus (x31); mouse, in vivo): complete rescue from death | animals showing a decreased time to fall on the rotarod [1]: 27%
